Data on nine compounds can be found in patent US12435083B2, “Cyclopropyl-(hetero)aryl-substituted ethylsulphonyl-pyridine derivatives” (BOEHRINGER INGELHEIM VETMEDICA GMBH, priority 2021, dated 2025).

pEC50: −log10 of the molar value. Read-outs that look alike come from different tables or passages of the source.

The test system of assay [1] is nymphs of Dermacentor variabilis ticks. The assay is described as follows: Oral rat-tick efficacy against nymphs of Dermacentor variabilis ticks. Type of assay: in vivo. The conditions noted are these: rats, oral gavage 10 mg/kg on Day 0, tick count on Day 3. As to the method:
Example 10: Comparison of Oral Rat-Tick Efficacy Data for Selected Specific Compounds of Formula (I) Against Nymphs of Dermacentor variabilis Ticks
On Day −1, rats were sedated, fitted with an Elizabethan collar, and infested with approximately 35 nymphal stage D. variabilis ticks. On Day 0, each rat was treated via oral gavage with the appropriate formulation of placebo, positive control, or test compound at the appropriate dose. On Day 3, all rats were euthanized, and ticks were removed, counted, and disposed of. In Table 2 efficacy is expressed in % mortality compared to negative controls containing compound vehicle only.

In assay [2] the test system is adult Rhipicephalus sanguineus ticks. Kind of assay: Contact activity against adult Rhipicephalus sanguineus (coated vial, mortality at 48 h). Summed up:
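Compound in acetone/0.02% Triton X-100 coated onto glass vial walls and cap filter paper; after drying, ten adult ticks added per vial. Held at 24° C, 95% relative humidity, 12 h light/dark cycle. Mortality scored visually at 48 hours; EC50 derived from a dose-response series.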

Assay [3] concerns adult Ctenocephalides felis fleas. The assay is described as follows: Ingestion activity (flea membrane feeding, blood feeding) against adult Ctenocephalides felis.
The subject of assay [4] is Spodoptera litura 2nd-instar larvae. Kind of assay: Insecticidal test on Spodoptera litura (cabbage leaf dip). Particulars: foliar, 192 h, 8 days after inoculation, read-out: activity level (corrected mortality rate), Spodoptera litura. As to the method: Example 11: Insecticidal Test on Spodoptera litura
The compounds of formula (I) of the present invention or salts thereof were separately dispersed in water and diluted to 500 ppm. Cabbage leaves were dipped in the dispersion for about 30 seconds. After air dried, the leaves were placed in a plastic Petri dish with a diameter of 9 cm and inoculated with ten 2nd-instar larvae of Spodoptera litura, after which the dish was closed and then allowed to stand in a room at 25° C. 8 days after the inoculation, the numbers of the dead and alive insects were counted. The corrected mortality rate was calculated according to the following formula and the insecticidal activity was evaluated according to the following criteria. Corrected mortality rate (%)=100×(Survival rate in an untreated plot−Survival rate in a treated plot)/Survival rate in an untreated plot • A: the corrected mortality rate is 100% • B: the corrected mortality rate is 90 to 99% • C: the corrected mortality rate is 80 to 89% • D: the corrected mortality rate is 50 to 79%

The subject of assay [5] is Myzus persicae. Kind of assay: Insecticidal test on Myzus persicae (foliar application on potted Chinese cabbage). The conditions noted are these: 144 h, read-out: control efficacy level (control rate), Myzus persicae.
Assay [6] deals with Plutella xylostella. Kind of assay: Insecticidal test on Plutella xylostella (Chinese cabbage seedling dip). The conditions noted are these: 144 h, 500 ppm, seedling dip, 6 days after dip treatment, read-out: activity level (corrected mortality rate), Plutella xylostella. The method in brief:
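Compounds dispersed in water at 500 ppm; Chinese cabbage seedlings bearing eggs laid by released adults over 2 days were dipped ~30 s, air-dried and kept at 25° C. Dead and live insects counted 6 days later; corrected mortality versus untreated plot scored A (100%), B (90–99%), C (80–89%), D (50–79%).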

The test system of assay [7] is adult Ctenocephalides felis fleas. Kind of assay: Contact activity against adult Ctenocephalides felis (treated surface, motility by machine vision, 24 h). The conditions noted are these: treated surface, 24h, read-out: EC80 (% motility reduction, adult C. felis, contact). An excerpt:
Example 7: Screening Method to Test Contact Activity of Compounds of Formula (I) Against Adult Ctenocephalides felis

The test system of assay [8] is Aedes aegypti L1 larvae. The assay is described as follows: Activity against larvae of Aedes aegypti (L1 larvae, 384-well, image-based mortality). Particulars: read-out: EC50 (percentage of mortality, A. aegypti L1 larvae). As to the method:
Example 3: Screening Method to Test Activity of Compounds of Formula (I) Against Larvae of Aedes aegypti
Eight A. aegypti L1 larvae in a total volume of 64 μL water were added to 384-well microplates containing compounds formulated in 100% DMSO. The plates were incubated for 48 h at 27° C. Individual well images were acquired and analyzed using a pipeline to quantitatively assess the amount of larvae biomass accumulating at the bottom of the well. The efficacy of a compound at a given dose is expressed as “percentage of mortality” and determined by comparison to average biomass descriptors of positive and negative control wells containing 1.0 μM Fipronil or DMSO only, respectively. Dose response assay were conducted to determine an EC50 value.

Assay [9] relates to Laodelphax striatellus 3rd-instar nymphs. The assay is described as follows: Insecticidal test on Laodelphax striatellus (rice seedling dip). Particulars: 192 h, 500 ppm, seedling dip, 8 days after inoculation, read-out: activity level (corrected mortality rate), Laodelphax striatellus.
Where [10] appears, read: contact assay, >100 μM = not active at the top concentration, read-out: R. sanguineus contact activity EC50.
Where [11] appears, read: 500 ppm, foliar application, 6 days after application.
Setting [12] is: Rhipicephalus sanguineus, 48 hours post-treatment, coated vial, read-out: EC50 (percentage mortality, adult R. sanguineus, contact).
The mark [13] stands for this setting: Rhipicephalus sanguineus, contact assay, >100 μM = not active at the top concentration, read-out: R. sanguineus contact activity EC50.
Where [14] appears, read: Ctenocephalides felis, 24 h, flea membrane feeding (ingestion, blood feeding) assay, EC80, read-out: C. felis membrane feeding (ingestion/blood feeding) activity EC80.
Setting [15] is: Ctenocephalides felis, bovine blood, 24h post treatment, read-out: EC80 (% motility reduction, adult C. felis, ingestion via membrane feeding).

For the compound `CCS(=O)(=O)c1cc(-c2ccc(C3CC3)cc2)cnc1-c1nc2cc(C(F)(F)C(F)(F)F)cnc2n1C` [compound 44], the “Observed efficacy (% mortality compared to negative controls)” value in assay [1] is reported as over 95%. Besides, the pEC50 – broadly, −log10 of the EC50, conventionally taken in molar units – in assay [2] (setting [10]) is 4.00 to 5.00. Moreover, the “C. felis membrane feeding (ingestion/blood feeding) activity EC80” value in assay [3] (flea membrane feeding (ingestion, blood feeding) assay, EC80) lay in the range of 1 to 10 µM.
Regarding `CCS(=O)(=O)c1cc(-c2ccc(C3(C#N)CC3)cc2)cnc1-c1nc2cc(C(F)(F)F)cn(CC(F)F)c-2c1F` [compound 67], in assay [1], the “Observed efficacy (% mortality compared to negative controls)” value is reported as over 95%.
With `CCS(=O)(=O)c1cc(-c2cccc(C3CC3)n2)cnc1-c1nc2cc(C(F)(F)C(F)(F)F)cnc2n1C` [compound 112], the mortality at 500 ppm in assay [4] and in assay [6] was 100% in each case. Besides, the pest or weed control at 500 ppm in assay [5] (setting [11]) was determined as 100%. The EC80 is under 1 µM in assay [7], 1 to 10 µM in assay [3] (setting [14]) and 1 to 10 µM in assay [3] (setting [15]). Further, the pEC50 in assay [2] (setting [12]) was 4.00 to 5.00; in assay [2] (setting [13]), 4.00 to 5.00; in [8] (48 h at 27° C., 384-well), over 7.40.
Take `CCS(=O)(=O)c1cc(-c2ccc(C3CC3)cc2)cnc1-c1nc2cc(C(F)(F)F)cnc2n1C` [Compound 41, 5-(4-cyclopropylphenyl)-3-(ethanesulfonyl)-2-[3-methyl-6-(trifluoromethyl)imidazo[4,5-b]pyridin-2-yl]pyridine]: the mortality at 500 ppm in assay [4], in assay [6] and in assay [9] was 100% in each case. Moreover, the pest or weed control at 500 ppm in assay [5] (setting [11]) amounted to 100%. Moreover, in assay [7], the EC80 is 1 to 10 µM. Further, the pEC50 in assay [8] (48 h at 27° C., 384-well) was over 7.40.
For the compound `CCS(=O)(=O)c1cc(-c2ccc(C3(C#N)CC3)cc2)cnc1-c1nc2cc(C(F)(F)C(F)(F)F)ncc2n1C` [Compound 115, 1-[4-[5-(ethanesulfonyl)-6-[3-methyl-6-(1,1,2,2,2-pentafluoroethyl)imidazo[4,5-c]pyridin-2-yl]pyridin-3-yl]phenyl]cyclopropane-1-carbonitrile], the mortality at 500 ppm in assay [4], in [6] and in assay [9] was 100% each time. Also, the pest or weed control at 500 ppm in assay [5] (setting [11]) is 100%. In addition, the EC80 in assay [7], in assay [3] (setting [14]) and in assay [3] (setting [15]) was under 1 µM each time. Besides, the pEC50 in assay [2] (setting [12]) was 4.00 to 5.00; in assay [2] (setting [13]), 4.00 to 5.00; in assay [8] (48 h at 27° C., 384-well), over 7.40.
Turning to `CCS(=O)(=O)c1cc(-c2cccc(C3CC3)n2)cnc1-c1nc2cc(C(F)(F)C(F)(F)F)nnc2n1C` [Compound 3, 6-cyclopropyl-5′-(ethanesulfonyl)-6′-[7-methyl-3-(1,1,2,2,2-pentafluoroethyl)imidazo[4,5-c]pyridazin-6-yl]-2,3′-bipyridine], the mortality at 500 ppm in assay [4], in [6] and in assay [9] was 100% each time. For the same compound, in assay [5] (foliar), the pest or weed control at 500 ppm was determined as 100%. Besides, the pEC50 in [8] (48 h) is over 7.40.
Take `CCS(=O)(=O)c1cc(-c2ccc(C3CC3)cc2)cnc1-c1nc2cc([S+]([O-])C(F)(F)F)ccc2n1C` (stereo not shown) [Compound 43, 2-[5-(4-cyclopropylphenyl)-3-(ethanesulfonyl)pyridin-2-yl]-1-methyl-5-trifluoromethanesulfinyl-1,3-benzodiazole]: the mortality at 500 ppm in assay [4] and in assay [6] was 100% each time. Further, the pest or weed control at 500 ppm in assay [5] (setting [11]) is 100%. The EC80 in assay [7] and in assay [3] (setting [15]) was 1 to 10 µM throughout. For the same compound, in [8] (48 h at 27° C., 384-well), the pEC50 was over 7.40.
On to `CCS(=O)(=O)c1cc(-c2ccc(C3(F)CC3)cc2)cnc1-c1nc2cc(C(F)(F)C(F)(F)F)nnc2n1C` [compound 19], for which the “Observed efficacy (% mortality compared to negative controls)” value in assay [1] is over 95%. For the same compound, the pEC50 in [2] (setting [10]) was 4.00 to 5.00. Moreover, the EC80 in [3] (flea membrane feeding (ingestion, blood feeding) assay, EC80, read-out: C. felis membrane feeding (ingestion/blood feeding) activity EC80) is recorded as under 1 µM.
Take `CCS(=O)(=O)c1cc(-c2ccc(C3CC3)cc2)cnc1-c1nc2cc(C(F)(F)F)n(C3CC3)c(=O)c2n1C` [Compound 45, 5-cyclopropyl-2-[5-(4-cyclopropylphenyl)-3-(ethanesulfonyl)pyridin-2-yl]-3-methyl-6-(trifluoromethyl)imidazo[4,5-c]pyridin-4-one]: the mortality at 500 ppm in assay [4], in assay [6] and in assay [9] was 100% in each case. Also, the pest or weed control at 500 ppm in assay [5] (setting [11]) was found to be 100%. In addition, the pEC50 in assay [2] (setting [12]) was over 5.00; in [2] (setting [13]) it was over 5.00; in assay [8] (48 h at 27° C., 384-well), over 7.40. Besides, the EC80 in assay [3] (setting [14]) and in assay [3] (setting [15]) was 1 to 10 µM throughout.
